{"source": "patent US6337417B1", "about": "“N-phenyltetrahydrophthalamic acid derivatives, methods of producing same, and herbicides containing same as effective components” (Central Glass Co., Ltd., priority 1994, dated 2002)", "key": {"[1]": {"tested_on": "ichibi (velvetleaf, Abutilon theophrasti)", "test": "Experiment 3 foliage treatment: ichibi", "assay_type": "in vivo", "parameters": "key: 5: completely killed; 4: seriously injured; 3: considerably injured; 2: somewhat injured; 1: slightly injured; 0: not injured (normally grown)", "details": "4 weeks after treatment", "description": "(§1) Upon seedling stage (two- or three-leaved stage) of ichibi (velvetleaf, Abutilon theophrasti), onamomi (heartleaf cocklebur, Xanthium strumarium) (4L stage), noasagao (blue morningglory, Ipomoea indica) and ooinutade (pale smartweed, Persicaria lapathifolia) which were grown on a cultivated soil put in pots of 1/8850 ares, a selected compound obtained in a manner analogous to Example 8, in suspended wettable powder, was sprayed to each plant. After that, the pots were kept in a glass chamber to allow each plant to grow, and after the lapse of 4 weeks from the treatment with the selected compounds the herbicidal effects were evaluated. The evaluation of the herbicidal effects was similarly conducted as to that of Experiment 1."}, "[2]": {"tested_on": "onamomi (heartleaf cocklebur, Xanthium strumarium)", "test": "Experiment 3 foliage treatment: onamomi", "assay_type": "in vivo", "parameters": "key: 5: completely killed; 4: seriously injured; 3: considerably injured; 2: somewhat injured; 1: slightly injured; 0: not injured (normally grown)", "details": "4 weeks after treatment", "description": "as §1"}, "[3]": {"tested_on": "noasagao (blue morningglory, Ipomoea indica)", "test": "Experiment 3 foliage treatment: noasagao", "assay_type": "in vivo", "parameters": "key: 5: completely killed; 4: seriously injured; 3: considerably injured; 2: somewhat injured; 1: slightly injured; 0: not injured (normally grown)", "details": "4 weeks after treatment", "description": "as §1"}, "[4]": {"tested_on": "ooinutade (pale smartweed, Persicaria lapathifolia)", "test": "Experiment 3 foliage treatment: ooinutade", "assay_type": "in vivo", "parameters": "key: 5: completely killed; 4: seriously injured; 3: considerably injured; 2: somewhat injured; 1: slightly injured; 0: not injured (normally grown)", "details": "4 weeks after treatment", "description": "as §1"}, "[5]": {"tested_on": "ichibi (velvetleaf, Abutilon theophrasti)", "test": "Experiment 6 foliage treatment: ichibi", "assay_type": "in vivo", "parameters": "key: 5: completely killed; 4: seriously injured; 3: considerably injured; 2: somewhat injured; 1: slightly injured; 0: not injured (normally grown)", "details": "foliage spray of wettable powder suspension, evaluated 4 weeks after treatment", "description": "as §1, with “(4 L” for “(4L”, “11,” for “8,”, “as” for “as to”"}, "[6]": {"tested_on": "onamomi (heartleaf cocklebur, Xanthium strumarium)", "test": "Experiment 6 foliage treatment: onamomi", "assay_type": "in vivo", "parameters": "key: 5: completely killed; 4: seriously injured; 3: considerably injured; 2: somewhat injured; 1: slightly injured; 0: not injured (normally grown)", "details": "foliage spray of wettable powder suspension, evaluated 4 weeks after treatment", "description": "as §1, with “(4 L” for “(4L”, “11,” for “8,”, “as” for “as to”"}, "[7]": {"tested_on": "noasagao (blue morningglory, Ipomoea indica)", "test": "Experiment 6 foliage treatment: noasagao", "assay_type": "in vivo", "parameters": "key: 5: completely killed; 4: seriously injured; 3: considerably injured; 2: somewhat injured; 1: slightly injured; 0: not injured (normally grown)", "details": "foliage spray of wettable powder suspension, evaluated 4 weeks after treatment", "description": "as §1, with “(4 L” for “(4L”, “11,” for “8,”, “as” for “as to”"}, "[8]": {"tested_on": "ooinutade (pale smartweed, Persicaria lapathifolia)", "test": "Experiment 6 foliage treatment: ooinutade", "assay_type": "in vivo", "parameters": "key: 5: completely killed; 4: seriously injured; 3: considerably injured; 2: somewhat injured; 1: slightly injured; 0: not injured (normally grown)", "details": "foliage spray of wettable powder suspension, evaluated 4 weeks after treatment", "description": "as §1, with “(4 L” for “(4L”, “11,” for “8,”, “as” for “as to”"}, "[9]": {"tested_on": "ichibi (velvetleaf, Abutilon theophrasti)", "test": "Experiment 9 foliage treatment: ichibi", "assay_type": "in vivo", "parameters": "key: 5: completely killed; 4: seriously injured; 3: considerably injured; 2: somewhat injured; 1: slightly injured; 0: not injured (normally grown)", "details": "foliage spray of wettable powder suspension, evaluated 4 weeks after treatment", "description": "as §1, with “14,” for “8,”, “as” for “as to”"}, "[10]": {"tested_on": "onamomi (heartleaf cocklebur, Xanthium strumarium)", "test": "Experiment 9 foliage treatment: onamomi", "assay_type": "in vivo", "parameters": "key: 5: completely killed; 4: seriously injured; 3: considerably injured; 2: somewhat injured; 1: slightly injured; 0: not injured (normally grown)", "details": "foliage spray of wettable powder suspension, evaluated 4 weeks after treatment", "description": "as §1, with “14,” for “8,”, “as” for “as to”"}, "[11]": {"tested_on": "noasagao (blue morningglory, Ipomoea indica)", "test": "Experiment 9 foliage treatment: noasagao", "assay_type": "in vivo", "parameters": "key: 5: completely killed; 4: seriously injured; 3: considerably injured; 2: somewhat injured; 1: slightly injured; 0: not injured (normally grown)", "details": "foliage spray of wettable powder suspension, evaluated 4 weeks after treatment", "description": "as §1, with “14,” for “8,”, “as” for “as to”"}, "[12]": {"tested_on": "ooinutade (pale smartweed, Persicaria lapathifolia)", "test": "Experiment 9 foliage treatment: ooinutade", "assay_type": "in vivo", "parameters": "key: 5: completely killed; 4: seriously injured; 3: considerably injured; 2: somewhat injured; 1: slightly injured; 0: not injured (normally grown)", "details": "foliage spray of wettable powder suspension, evaluated 4 weeks after treatment", "description": "as §1, with “14,” for “8,”, “as” for “as to”"}}}
{"compound": "CCc1cnc(C2=NC(C)(C(C)C)C(=O)N2)c(C(=O)O)c1", "note": "(stereo not shown) [Comparative agentC, Pursuit, reference compound]", "values": [{"measurement": "Herbicidal Effect ichibi", "setting": "[1]; 4 g/10a", "result": 3}, {"measurement": "Herbicidal Effect ichibi", "setting": "[1]; 8 g/10a", "result": 3}, {"measurement": "Herbicidal Effect onamomi", "setting": "[2]; 4 g/10a", "result": 4}, {"measurement": "Herbicidal Effect onamomi", "setting": "[2]; 8 g/10a", "result": 5}, {"measurement": "Herbicidal Effect noasagao", "setting": "[3]; 4 g/10a", "result": 3}, {"measurement": "Herbicidal Effect noasagao", "setting": "[3]; 8 g/10a", "result": 4}, {"measurement": "Herbicidal Effect ooinutade", "setting": "[4]; 4 g/10a", "result": 5}, {"measurement": "Herbicidal Effect ooinutade", "setting": "[4]; 8 g/10a", "result": 5}, {"measurement": "Herbicidal Effect ichibi", "setting": "[5]; 4 g/10a", "result": 3}, {"measurement": "Herbicidal Effect ichibi", "setting": "[5]; 8 g/10a", "result": 3}, {"measurement": "Herbicidal Effect onamomi", "setting": "[6]; 4 g/10a", "result": 4}, {"measurement": "Herbicidal Effect onamomi", "setting": "[6]; 8 g/10a", "result": 5}, {"measurement": "Herbicidal Effect noasagao", "setting": "[7]; 4 g/10a", "result": 3}, {"measurement": "Herbicidal Effect noasagao", "setting": "[7]; 8 g/10a", "result": 4}, {"measurement": "Herbicidal Effect ooinutade", "setting": "[8]; 4 g/10a", "result": 5}, {"measurement": "Herbicidal Effect ooinutade", "setting": "[8]; 8 g/10a", "result": 5}, {"measurement": "Herbicidal Effet ichibi", "setting": "[9]; 4 g/10a", "result": 3}, {"measurement": "Herbicidal Effet ichibi", "setting": "[9]; 8 g/10a", "result": 3}, {"measurement": "Herbicidal Effet onamomi", "setting": "[10]; 4 g/10a", "result": 4}, {"measurement": "Herbicidal Effet onamomi", "setting": "[10]; 8 g/10a", "result": 5}, {"measurement": "Herbicidal Effet noasagao", "setting": "[11]; 4 g/10a", "result": 3}, {"measurement": "Herbicidal Effet noasagao", "setting": "[11]; 8 g/10a", "result": 4}, {"measurement": "Herbicidal Effet ooinutade", "setting": "[12]; 4 g/10a", "result": 5}, {"measurement": "Herbicidal Effet ooinutade", "setting": "[12]; 8 g/10a", "result": 5}]}
{"compound": "COC(=O)Cc1sc(F)c(N(C(C)=O)C(=O)C2=C(C(=O)OC)CCCC2)c1Cl", "note": "[compound 11, N-acetyl-N-(4-chloro-2-fluoro-5-methoxycarbonylmethylthiophenyl)-3,4,5,6-tetrahydrophthalamic acid methyl ester]", "values": [{"measurement": "melting point", "result": "124 to 124.5", "unit": "°C"}]}
